Results published in patent US10500222B2, “Compositions and methods relating to treatment of infection” (Wayne State University, priority 2015, dated 2019).
“Also recorded” adds a separate entry of the source.

Key:
Assay type in all cases: in vivo, C57BL/6 (B6) mice
[1] = test system: mRNA levels in P. aeruginosa KEI 1025 infected cornea; experiment: Real time RT-PCR of cornea, KEI 1025 infection
Description: (§1) The left eyes of B6 mice (n=5/group/time) were injected with 5 μl of 2 μg/μl glycyrrhizin (GLY) (Sigma-Aldrich, St. Louis, Mo.) or PBS (control) subconjunctivally, one day before infection. Similar treatment was done using carbenoxolone (CBX) (Sigma-Aldrich, St. Louis, Mo.). All mice were injected intraperitoneally (IP) at 1 and 3 days p.i. with 100 μl of GLY (2 μg/μl) or CBX (1 μg/μl). PBS served as control for all these experiments. In a separate similar experiment mice were treated one day before infection with GLY subconjunctivally and injected intraperitoneally (i.p.) with GLY plus recombinant (r) HMGB1 (1 μg/100 μl) or GLY plus PBS. IP injections were similarly given at 1 and 3 days p.i. In an additional experiment, KEI 1025 infected B6 mice were treated with 5 μl of 2 μg/μl GLY subconjunctivally at 6 hours p.i. and injected intraperitoneally at 1 and 3 days p.i. with 100 μl of GLY (2 μg/μl).
KEI 1025 or ATCC strain 19660 infected GLY or PBS treated mice were sacrificed at 5 days p.i. and the normal, contralateral (uninfected) and infected cornea was harvested. For each cornea, total RNA was isolated (RNA STAT-60™; Tel-Test, Friendswood, Tex.) according to the manufacturer's instructions. Upon spectrophotometric quantification at 260 nm, 1 μg of each RNA sample was reverse transcribed using Moloney-murine leukemia virus (M-MLV) reverse transcriptase (Invitrogen, Carlsbad, Calif.) to produce a cDNA template for the PCR reaction. cDNA products were diluted 1:25 with diethylpyrocarbonate (DEPC)-treated water. A 2 μl aliquot of diluted cDNA was used for the real-time RT-PCR reaction with Real-Time SYBR® Green/Fluorescein PCR Master Mix (Bio-Rad) and primer concentrations of 10 μM (total 10 μl reaction volume). After a pre-programmed hot start cycle (3 min at 95° C.), the parameters used for PCR amplification were: 15 sec at 95° C. and 60 sec at 60° C. with the cycles repeated 45 times. Optimal conditions for PCR amplification of cDNA were established using routine methods. mRNA levels of HMGB1, RAGE, IL-1β, TLR2, TLR4, CXCL2, TNF-α, NLR family pyrin domain containing 3 (NLRP3), NLR family CARD domain containing 4 (NLRC4), IL-12, TGF-β, IL-10, single Ig IL-1-related receptor (SIGIRR) and interleukin 1 receptor-like 1 (ST2) were tested by real-time RT-PCR (CFX Connect™ Real-Time PCR Detection System; Bio-Rad, Richmond, Calif.). The fold differences in gene expression were calculated after normalization to β-actin and expressed as the relative mRNA concentration+SEM.

[2] = test system: P. aeruginosa KEI 1025 infected cornea; experiment: Ocular response to bacterial infection (clinical score, slit lamp), KEI 1025 keratitis; settings: subconj. 1 day before infection + IP 1 and 3 days p.i., vs PBS
From the text: P. aeruginosa strains, KEI 1025, a non-cytotoxic clinical isolate strain expressing exoT and exoS, and not expressing exoU, described in Estrellas P S, Jr., et al., Curr Eye Res. 2000; 20:157-165 (obtained from Kresge Eye Institute, Detroit, Mich.), and a cytotoxic strain, 19660, expressing exoU, described in Finck-Barbancon V, et al., Mol Microbiol. 1997; 25:547-557; and Fleiszig S M, et al., Infect Immun. 1997; 65:579-586 (obtained from American Type Culture Collection, ATCC, Manassas, Va.), were grown in peptone tryptic soy broth (PTSB) medium in a rotary shaker water bath at 37° C. and 150 rpm for 18 h to an optical density (measured at 540 nm) between 1.3-1.8. Bacterial cultures were pelleted by centrifugation at 5,500 g for 10 min. Pellets were washed once with sterile saline, re-centrifuged, re-suspended and diluted in sterile saline. Anesthetized (using anhydrous ethyl ether) mice were placed beneath a stereoscopic microscope at 40× magnification. The left cornea was scarified with three 1-mm incisions using a sterile 25^5/8 gauge needle. The wounded corneal surface was topically treated with 5 μl containing 1×10^7 CFU/μl (KEI 1025) or 1×10^6 CFU/μl (ATCC strain 19660) of the P. aeruginosa suspension.
An established corneal disease grading scale, described in detail in Hazlett L D, et al., Invest Ophthalmol Vis Sci. 1987; 28:1978-1985, was used to assign a clinical score value to each infected eye at 1, 3 and 5 days post infection (p.i.). Clinical scores were designated as: 0=clear or slight opacity, partially or fully covering the pupil; +1=slight opacity, fully covering the anterior segment; +2=dense opacity, partially or fully covering the pupil; +3=dense opacity, covering the entire anterior segment; and +4=corneal perforation or phthisis. Clinical scores were used to statistically compare disease severity and were accompanied by photographs using a slit lamp (5 days p.i.) to confirm and illustrate the response.
as §1

[3] = test system: P. aeruginosa KEI 1025; experiment: Quantification of viable bacteria (plate count), KEI 1025 infection; settings: pretreatment subconj. + IP, vs PBS
Description: as §1
Mice were sacrificed at 3 and 5 days p.i. and KEI 1025 or ATCC strain 19660 infected corneas from GLY, CBX or PBS (or GLY+/−rHMGB1) treated B6 mice were harvested (n=5/group/time). Each cornea was homogenized in 1 ml of sterile saline (0.85% NaCl, pH 7.4) containing 0.25% BSA. A 100 μl of the corneal homogenate was serially diluted (1:10) in sterile saline containing 0.25% BSA. Selected dilutions were plated in triplicate on selective culture medium (Difco™ Pseudomonas Isolation Agar, BD Biosciences, Inc., Franklin Lakes, N.J.). Plates were incubated overnight at 37° C. and viable bacteria manually counted. Results are reported as log10 CFU/cornea±SEM.

[4] = KEI 1025, pretreatment subconj. + IP, infected cornea 5 days p.i., vs PBS

`CC1(C)[C@@H](OC(=O)CCC(=O)O)CC[C@]2(C)[C@H]3C(=O)C=C4[C@@H]5C[C@@](C)(C(=O)O)CC[C@]5(C)CC[C@@]4(C)[C@]3(C)CC[C@@H]12` [CBX, carbenoxolone] was tested, and the “CXCL2 mRNA levels” value [1, 4] was “reduced”, the “HMGB1 mRNA levels” value [1, 4] was “no difference” and the “IL-1β mRNA levels” value [1, 4] was “significantly reduced”. The “IL-12 mRNA levels” value [1, 4] was “only GLY reduced”, the “NLRC4 mRNA levels” value [1, 4] was “only GLY reduced” and the “NLRP3 mRNA levels” value [1, 4] was “reduced”. For the same molecule, the “SIGIRR mRNA levels” value [1, 4] was “increased modestly”, the “TGF-β mRNA levels” value [1, 4] was “reduced” and the “TLR2 mRNA levels” value [1, 4] was “did not differ from PBS controls”. For the same molecule, the “TLR4 mRNA” value [1, 4] was “reduced”, the “TNF-α mRNA levels” value [1, 4] was “reduced by both GLY and CBX, but only GLY (p<0.01) was significant” and the “mRNA levels of the other molecules tested” value ([1]; normal (uninfected) corneas, among PBS, CBX, GLY groups) was “no differences”. The clinical scores ([2]; 3 days p.i.) was “statistically significant reduction in disease scores; also recorded: only reduced at 3 days”, the clinical scores ([2]; 5 days p.i.) was “not at 5 (p=0.2) days p.i” and the “opacity, slit lamp photographs” value ([2]; 5 days p.i.) was “reduced opacity”. The “bacterial load in the corneas (plate count)” value ([3]; 3 days p.i.) was “not at 3 days p.i” and the “bacterial load in the corneas (plate count)” value ([3]; 5 days p.i.) was “significantly reduced”.
